Like-named read-outs stand apart in the source and are kept apart here.
Tests used:
Experiment in all cases: Efficacy screening assay
Type in all cases: cell-based
PC3 = conditions: Homo sapiens, PC-3, PC3, prostate, 72 h
Description: (§1) The experiment was performed by Oncolead GmbH & Co. KG (Karlsfeld , Germany), based on a standardized screening procedure . Cell lines were purchased directly from the ATCC, NCI and DSMZ cell line c ollections. Cells used for the study had undergone less than 20 passages. To ensure the absence of potential contamination and wrong assignment, all cell lines were tested using a whole genome assay (Agilent, USA). All cell lines were grown as recommended by the suppliers and with addition of 100 U/mL penicillin G and 100 µg/mL; streptomycin. Cell growth and treatments were performed in Nunclon D 96 -well plates (NUNC, Germany). The optimal seeding density for each cell line was determined to ensure exponential growth for the duration of the experiment. All cells growing without anti-cancer agents were sub-conﬂuent by the end of the treatment, as determined by visual inspection.
(§2) After an initial 24 h pre-growth period, the compounds were added. The vehicle concentration […]
(§3) was 0.1% DMSO. After incubation at 37°C for 72 h, the culture medium was aspirated, and the cells were precipitated by the addition of 10% trichloroacetic acid (Sigma-Aldrich, Missouri, US). After overnight incubation at 4°C, the plates were washed three times with deionized water. The precipitates were then stained with SRB (0.4% wt/v sulforhodamine B solution in 1% acetic acid, Sigma-Aldrich, Missouri, US). Afterwards, the plates were washed six times with 1% acetic acid to remove unbound stain. After drying the plates at room temperature, the bound SRB was solubilized with 10 mM Tris base and the optical density was measured at 520 nm using a Victor2 plate reader (Perkin Elmer, Germany). Blank OD values were subtracted from mean OD values for each concentration. The nonlinear curve ﬁtting and EC50 calculations were per formed using XLﬁt and algorithm “205” (ID Business […]
(§4) For comparison of EC50 values in Figure 1F, one-way ANOVA with multiple comparison testing (Tukey) was performed. Multiplicity adjusted p -values for the EC50 with sorafenib versus resminostat for each cell line and comparison between cell lines for sorafenib are presented (95% confidence interval for significance testing). For comparison of EC50 data in Figure 2B, one-way ANOVA with multiple comparison testing (Tukey) was performed. Multiplicity adjusted p-values with 95% confidence interval was applied. For the invasion assays in Figure 4, one-way ANOVA with multiple comparison testing (Tukey) was performed. Multiplicity adjusted p-values with 95% confidence interval was applied. The adjusted p-values comparing vehicle control without vs. with platelets and compound

T24 = conditions: T24, bladder
Description: as §1, §2, §3, §4

PANC1005 = conditions: PANC1005, pancreas
Description: as §1, §2, §3, §4

EJ28 = conditions: EJ28, bladder
Description: as §1, §2, §3, §4

HS578T = conditions: 72 h, breast
Description: as §1, §2, §3, §4

SKNAS = conditions: 72 h, brain
Description: as §1, §2, §3, §4

SKBR3 = conditions: SKBR3, breast
Description: as §1, §2, §3, §4

CASKI = conditions: 72 h, cervix
Description: as §1, §2, §3, §4

SKNSH = conditions: 72 h, brain
Description: as §1, §2, §3, §4

ASPC1 = conditions: Homo sapiens, ASPC1, pancreas, 72 h
Description: as §1, §2, §3
(§5) one-way ANOVA and multiple comparison (Dunnett) was performed for compound treatments compared to vehicle control. The adjusted p-values with 95% confidence interval were reported as significant. For comparison of EC50 values in Figure 1F, one-way ANOVA with multiple comparison testing (Tukey) was performed. Multiplicity adjusted p -values for the EC50 with sorafenib versus resminostat for each cell line and comparison between cell lines for sorafenib are presented (95% confidence interval for significance testing). For comparison of EC50 data in Figure 2B, one-way ANOVA with multiple comparison testing (Tukey) was performed. Multiplicity adjusted p-values with 95% confidence interval was applied. For the invasion assays in Figure 4, one-way ANOVA with multiple comparison testing (Tukey) was performed. Multiplicity adjusted p-values with 95% confidence interval was applied. The adjusted p-values comparing vehicle control without vs. with platelets and compound

A2780 = conditions: A2780, ovary
Description: as §1, §2, §3, §5

CAKI1 = conditions: CAKI1, kidney
Description: as §1, §2, §3, §5

A549 = conditions: A549, lung
Description: as §1, §2, §3, §5

A204 = conditions: A204, muscle
Description: as §1, §2, §3, §5

A431 = conditions: A431, skin
Description: as §1, §2, §3, §5

[1] = log of EC50, negative, read-out: log(EC50) (converted)

CN(C)Cc1ccc(S(=O)(=O)n2ccc(/C=C/C(=O)NO)c2)cc1 [resminostat, Resminostat]
EC50 (PC3; [1]): 1700 nM | EC50 (PC3; read-out: EC50): 1690 nM | EC50 (T24; Homo sapiens, T-24, 72 h, log of EC50, negative, read-out: log(EC50) (converted)): 933 nM | EC50 (T24; Homo sapiens, T-24, 72 h, read-out: EC50): 937 nM | EC50 (T24; 72 h, read-out: EC50): 940 nM | EC50 (PANC1005; Homo sapiens, Panc1005, 72 h, log of EC50, negative, read-out: log(EC50) (converted)): 5750 nM | EC50 (PANC1005; Homo sapiens, Panc1005, 72 h, read-out: EC50): 5740 nM | EC50 (PANC1005; 72 h, read-out: EC50): 5740 nM | EC50 (EJ28; 72 h, read-out: EC50): 4590 nM | EC50 (EJ28; Homo sapiens, EJ-28, 72 h, log of EC50, negative, read-out: log(EC50) (converted)): 4570 nM | EC50 (EJ28; Homo sapiens, EJ-28, 72 h, read-out: EC50): 4590 nM | EC50 (HS578T; Homo sapiens, Hs-578T, log of EC50, negative, read-out: log(EC50) (converted)): 3980 nM | EC50 (HS578T; Homo sapiens, Hs-578T, read-out: EC50): 4030 nM | EC50 (HS578T; read-out: EC50): 4030 nM | EC50 (SKNAS; Homo sapiens, SK-N-AS, log of EC50, negative, read-out: log(EC50) (converted)): 3550 nM | EC50 (SKNAS; Homo sapiens, SK-N-AS, read-out: EC50): 3540 nM | EC50 (SKNAS; read-out: EC50): 3540 nM | EC50 (SKBR3; Homo sapiens, SK-BR-3, 72 h, log of EC50, negative, read-out: log(EC50) (converted)): 933 nM | EC50 (SKBR3; Homo sapiens, SK-BR-3, 72 h, read-out: EC50): 930 nM | EC50 (SKBR3; 72 h, read-out: EC50): 930 nM | EC50 (CASKI; Homo sapiens, Ca-Ski, log of EC50, negative, read-out: log(EC50) (converted)): 2630 nM | EC50 (CASKI; Homo sapiens, Ca-Ski, read-out: EC50): 2630 nM | EC50 (CASKI; read-out: EC50): 2630 nM | EC50 (SKNSH; Homo sapiens, SK-N-SH, log of EC50, negative, read-out: log(EC50) (converted)): 3630 nM | EC50 (SKNSH; Homo sapiens, SK-N-SH, read-out: EC50): 3670 nM | EC50 (SKNSH; read-out: EC50): 3670 nM | EC50 (ASPC1; [1]): 1660 nM | EC50 (ASPC1; read-out: EC50): 1650 nM | EC50 (A2780; 72 h, read-out: EC50): 890 nM | EC50 (A2780; Homo sapiens, A2780, 72 h, log of EC50, negative, read-out: log(EC50) (converted)): 891 nM | EC50 (A2780; Homo sapiens, A2780, 72 h, read-out: EC50): 890 nM | EC50 (CAKI1; 72 h, read-out: EC50): 3270 nM | EC50 (CAKI1; Homo sapiens, CAKI-1, 72 h, log of EC50, negative, read-out: log(EC50) (converted)): 3310 nM | EC50 (CAKI1; Homo sapiens, CAKI-1, 72 h, read-out: EC50): 3270 nM | EC50 (A549; 72 h, read-out: EC50): 3500 nM | EC50 (A549; Homo sapiens, A549, 72 h, log of EC50, negative, read-out: log(EC50) (converted)): 3470 nM | EC50 (A549; Homo sapiens, A549, 72 h, read-out: EC50): 3500 nM | EC50 (A204; 72 h, read-out: EC50): 910 nM | EC50 (A204; Homo sapiens, A204, 72 h, log of EC50, negative, read-out: log(EC50) (converted)): 912 nM | EC50 (A204; Homo sapiens, A204, 72 h, read-out: EC50): 906 nM | EC50 (A431; 72 h, read-out: EC50): 1490 nM | EC50 (A431; Homo sapiens, A-431, 72 h, log of EC50, negative, read-out: log(EC50) (converted)): 1480 nM | EC50 (A431; Homo sapiens, A-431, 72 h, read-out: EC50): 1490 nM

Reference: PMC8100298, “Histone deacetylase inhibitor resminostat in combination with sorafenib counteracts platelet-mediated pro-tumoral effects in hepatocellular carcinoma” (Scientific Reports, 2021)
